The values below come from patent US20260053861A1, “CELL COMPOSITIONS AND METHODS OF USING THE SAME” (THE REGENTS OF THE UNIVERSITY OF CALIFORNIA, priority 2022, published 2026).

Counter-ions that a name gives are not always drawn.

In one experiment the test system is hPSC-SCs.
Details: not given
`C(#CCN1CCCC1)CN1CCCC1.Cl.Cl` [Tremorine dihydrochloride] came in with a z.score.t of −0.4139.

Molecule `COP(=O)(OC)C(O)C(Cl)(Cl)Cl` (stereo not shown) [Trichlorfon] showed a z.score.t of −0.04944.

Consider `COc1cc2c(c(OC)c1OC)-c1ccc(O)c(=O)cc1C(N)CC2` (stereo not shown) [Trimethylcolchicinic acid], for which the z.score.t was −0.07901.

For the molecule `CN1[C@@H]2CC[C@H]1C[C@@H](O)C2` [Tropine], the z.score.t is −0.6133.

Take `COc1cc2c3cc1Oc1cc(ccc1O)C[C@@H]1c4c(cc(OC)c(O)c4Oc4ccc(cc4)C[C@@H]3N(C)CC2)CC[N+]1(C)C.Cl.O.O.O.O.O.[Cl-]` [Tubocurarine chloride pentahydrate (+)]: the z.score.t was −1.166.

Molecule `Cc1cccc(C)c1N=C1NCCCS1` [Xylazine] showed a z.score.t of 1.75.

`O.O=C(O)[C@@H]1[C@H]2C[C@H]3c4[nH]c5ccccc5c4CCN3C[C@@H]2CC[C@@H]1O` [Yohimbinic acid monohydrate]: the z.score.t was −0.2065.

`CC1=C2[C@H]3OC(=O)[C@@H](C)[C@@H]3CC[C@@]2(C)C=CC1=O` [alpha-Santonin] came in with a z.score.t of −1.108.

The same experiment, now with this note: HTS viability of hPSC-SCs in the presence of 30 mM glucose; Prestwick library; Table S4.
On to `N[C@@H]1C[C@H]1c1ccccc1` [Tranylcypromine hydrochloride], for which the z.score.t is on record as 0.08508.

With `O=c1n(CCCN2CCN(c3cccc(Cl)c3)CC2)nc2ccccn12` [Trazodone hydrochloride], the z.score.t turned out to be 0.4346.

Regarding `C[C@]12C=CC(=O)C=C1CC[C@H]1[C@@H]3C[C@@H](O)[C@](O)(C(=O)CO)[C@@]3(C)C[C@H](O)[C@@]12F` [Triamcinolone], the z.score.t is recorded as 2.024.

For `Nc1nc(N)c2nc(-c3ccccc3)c(N)nc2n1` [Triamterene], the z.score.t came to 0.4903.

Regarding `CCOC1O[C@H]([C@@H](COCc2ccccc2)OCc2ccccc2)[C@H](OCc2ccccc2)[C@H]1O` (stereo partly shown) [Tribenoside], the z.score.t is on record as −1.558.

Turning to `NS(=O)(=O)c1cc2c(cc1Cl)NC(C(Cl)Cl)NS2(=O)=O` (stereo not shown) [Trichlormethiazide], the z.score.t was −0.03362.

In the case of `CC[N+](CC)(CC)CCC(O)(c1ccccc1)C1CCCCC1.[Cl-]` (stereo not shown) [Tridihexethyl chloride], the z.score.t is reported as −1.558.

For the molecule `CN1CCN(CCCN2c3ccccc3Sc3ccc(C(F)(F)F)cc32)CC1` [Trifluoperazine dihydrochloride], the z.score.t was −1.866.

Consider `CN(C)CCCN1c2ccccc2Sc2ccc(C(F)(F)F)cc21` [Triflupromazine hydrochloride], for which the z.score.t is on record as −1.512.

In the case of `O=c1[nH]c(=O)n([C@H]2C[C@H](O)[C@@H](CO)O2)cc1C(F)(F)F` [Trifluridine], the z.score.t is listed as −0.7873.

Regarding `CC(=O)Oc1cc(C(F)(F)F)ccc1C(=O)O` [Triflusal], the z.score.t came to 1.139.

In the case of `C[n+]1cccc(C(=O)[O-])c1` [Trigonelline], the z.score.t came to 0.9213.

On to `Cl.OC(CCN1CCCCC1)(c1ccccc1)C1CCCCC1` (stereo not shown) [Trihexyphenidyl-D, L Hydrochloride], for which the z.score.t is −1.107.

Take `COc1ccc(CN2CCNCC2)c(OC)c1OC` [Trimetazidine dihydrochloride]: the z.score.t amounted to 0.2189.

For `CN1C(=O)OC(C)(C)C1=O` [Trimethadione], the z.score.t is recorded as 1.08.

With `COc1cc(C(=O)NCc2ccc(OCCN(C)C)cc2)cc(OC)c1OC` [Trimethobenzamide hydrochloride], the z.score.t is −0.2719.

`COc1cc(Cc2cnc(N)nc2N)cc(OC)c1OC` [Trimethoprim]: the z.score.t turned out to be 0.2479.

With `Cc1cc2cc3c(C)cc(=O)oc3c(C)c2o1` [Trioxsalen], the z.score.t is recorded as −0.1913.

As for `Cc1ccc(/C(=C\CN2CCCC2)c2ccccn2)cc1` [Triprolidine hydrochloride], the z.score.t is reported as 0.2479.

For `CO[C@H]1C[C@H](O[C@H]2[C@H](C)[C@@H](O[C@@H]3O[C@H](C)C[C@H](N(C)C)[C@H]3OC(C)=O)[C@@H](C)C[C@@]3(CO3)C(=O)[C@H](C)[C@@H](OC(C)=O)[C@@H](C)[C@@H](C)OC(=O)[C@@H]2C)O[C@@H](C)[C@@H]1OC(C)=O` [Troleandomycin], the z.score.t is 1.067.

Take `Cc1c(C)c2c(c(C)c1O)CCC(C)(C(=O)O)O2` (stereo not shown) [Trolox]: the z.score.t worked out at 2.048.

Turning to `CN1[C@@H]2CC[C@H]1C[C@@H](OC(=O)c1c[nH]c3ccccc13)C2` [Tropisetron HCl], the z.score.t is given as −0.7595.

For the molecule `CO[C@@H]1C=C2CCN(C)[C@@H]2C2c3cc4c(cc3C(=O)OC21)OCO4.O=[N+]([O-])O` (stereo partly shown) [Ungerine nitrate], the z.score.t is 1.117.

On to `COc1ccccc1N1CCN(CCCNc2cc(=O)n(C)c(=O)n2C)CC1` [Urapidil hydrochloride], for which the z.score.t worked out at 0.4105.

`C[C@H](CCC(=O)O)[C@H]1CC[C@H]2[C@@H]3[C@@H](O)C[C@@H]4C[C@H](O)CC[C@]4(C)[C@H]3CC[C@]12C` [Urosiol]: the z.score.t was −0.6988.

As to `C[C@H]1[C@H](C)CC[C@]2(C(=O)O)CC[C@]3(C)C(=CC[C@@H]4[C@@]5(C)CC[C@H](O)C(C)(C)[C@@H]5CC[C@]43C)[C@H]12` [Ursolic acid], the z.score.t is −0.765.

For the molecule `Nc1ncnc2c1ncn2[C@@H]1O[C@H](CO)[C@@H](O)[C@@H]1O` [Vidarabine], the z.score.t is reported as 0.1019.

For the molecule `C=CC(N)CCC(=O)O` (stereo not shown) [Vigabatrin], the z.score.t is listed as −0.8304.

On to `CC[C@]12CCCN3CCc4c(n(c5ccccc45)[C@@](O)(C(=O)OC)C1)[C@@H]32` [Vincamine], for which the z.score.t is recorded as 0.08508.

Turning to `CCOC(=O)C1=C[C@]2(CC)CCCN3CCc4c(n1c1ccccc41)[C@@H]32` [Vinpocetine], the z.score.t was found to be 0.6517.

As to `O=c1cc(-c2ccc(O)cc2)oc2c([C@@H]3O[C@H](CO)[C@@H](O)[C@H](O)[C@H]3O)c(O)cc(O)c12` [Vitexin], the z.score.t is −0.05622.

With `O=C(NCCNCC(O)COc1ccc(O)cc1)N1CCOCC1` (stereo not shown) [Xamoterol hemifumarate], the z.score.t amounted to 0.81.

`Cc1cc(C(C)(C)C)cc(C)c1CC1=NCCN1` [Xylometazoline hydrochloride]: the z.score.t is given as −0.827.

Regarding `COC(=O)[C@@H]1[C@H]2C[C@H]3c4[nH]c5ccccc5c4CCN3C[C@@H]2CC[C@@H]1O` [Yohimbine hydrochloride], the z.score.t stood at 0.6763.

Take `Nc1ccn([C@H]2CC[C@@H](CO)O2)c(=O)n1` [Zalcitabine]: the z.score.t is −0.9487.

Take `CCCOc1ccccc1-c1nc2nn[nH]c2c(=O)[nH]1` [Zaprinast]: the z.score.t is recorded as −0.4341.

Regarding `COc1cc(-c2ccc(=O)[nH]n2)ccc1OC(F)F` [Zardaverine], the z.score.t is recorded as −1.128.

With `Cc1cn([C@H]2C[C@H](N=[N+]=[N-])[C@@H](CO)O2)c(=O)[nH]c1=O` [Zidovudine, AZT], the z.score.t is reported as −0.8478.

For the molecule `CN(C)C/C=C(/c1ccc(Br)cc1)c1cccnc1` [Zimelidine dihydrochloride monohydrate], the z.score.t was found to be 0.4064.

Turning to `Cc1cc(CC(=O)O)n(C)c1C(=O)c1ccc(Cl)cc1` [Zomepirac sodium salt], the z.score.t is reported as −0.9042.

Take `OCCN1CCN(CC/C=C2/c3ccccc3Sc3ccc(Cl)cc32)CC1` [Zuclopenthixol hydrochloride]: the z.score.t was −1.345.
